Assay: PAMPA permeability test
Format: in vitro ADME
Protocol: This test allows the determination of the compound’s passive diffusion through biological membranes.
Precoated PAMPA Plate System Gentest was obtained from Corning (Tewksbury, MA, USA). Test compounds and caffeine solutions (200 µM) were prepared in a PBS buffer (pH = 7.4) and then added to the PAMPA plate. The plate was incubated at room temperature for 5 h without agitation. Then, 150 µL was aspirated from both acceptor (A) and donor (D) wells and then diluted with a 150 µL internal standard (IS) solution. The concentrations of the tested compounds in wells A and D were estimated using an LC/MS Waters ACQUITY™ TQD system with a TQ detector (Waters, Milford, CT, USA). The values of Pe were estimated according to the exact formulas provided by Corning and previously described in the literature.
4. Absorption – PAMPA permeability test
*Permeability coefficient. Compound is permeable if Pe≥1.5×10-6 cm/s
**CFN = caffeine, well-permeable control
UPLC of Caffeine solution in PBS (pH=7.4) after 5h of incubation: acceptor well
(above), donor well (below). IS – internal standard.
UPLC of PR 68 solution in PBS (pH=7.4) after 5h of incubation: acceptor well (above),
donor well (below). IS – internal standard. […]

Compound: CC1NC(NS(=O)(=O)c2cccc3ccccc23)=Nc2cccc(Cl)c21 (stereo not drawn) [PR 68, N -(5-chloro-4-methyl-3,4-dihydroquinazolin-2-yl)naphthalene-1-sulfonamide]
- membrane retention R (PAMPA): 0.65
- Papp at 5 h, 200 µM (PAMPA, PBS pH 7.4, 5 h, room temperature, read-out: PAMPA Pe): 1.72 ×10⁻⁶ cm/s
- PAMPA Pe (PBS pH 7.4, 5 h, room temperature): 1.72 10^−6 cm/s
